Source: BigSolDB 2.1

NC(=O)c1cnccn1
solubility (mole fraction)
Conditions | 278.15 K | 283.15 K | 288.15 K | 293.15 K | 298.15 K | 303.15 K | 308.15 K | 313.15 K | 318.15 K | 323.15 K
in acetone | 0.00249 | 0.00304 | 0.00357 | 0.00424 | 0.00495 | 0.00574 | 0.00674 | 0.00784 | 0.00897 | 0.00975
in acetonitrile | 0.00125 | 0.00162 | 0.00205 | 0.00248 | 0.00294 | 0.00351 | 0.0042 | 0.00497 | 0.0058 | 0.00633
in ethyl acetate | 0.0016 | 0.00219 | 0.0024 | 0.00312 | 0.0035 | 0.00416 | 0.00475 | 0.00581 | 0.00666 | 0.00775
in isopropanol | 0.000619 | 0.000973 | 0.00136 | 0.00181 | 0.00224 | 0.00279 | 0.00365 | 0.00466 | 0.00574 | 0.00692
in methanol | 0.00208 | 0.00265 | 0.00328 | 0.00384 | 0.0047 | 0.00563 | 0.0071 | 0.00828 | 0.01 | –
in n-butanol | 0.000772 | 0.00116 | 0.00148 | 0.00192 | 0.00237 | 0.00309 | 0.00396 | 0.00512 | 0.00623 | 0.00731
in n-propanol | 0.000775 | 0.00123 | 0.00145 | 0.00179 | 0.00245 | 0.00297 | 0.00394 | 0.00503 | 0.00616 | 0.00707
in sec-butanol | 0.00053 | 0.00081 | 0.00108 | 0.0015 | 0.00188 | 0.00252 | 0.00332 | 0.00434 | 0.00564 | 0.00696
in water | 0.00105 | 0.00131 | 0.00168 | 0.00194 | 0.0024 | 0.00284 | 0.00362 | 0.00421 | 0.00521 | 0.006
